Assay results as given in the NIST ThermoML archive (doi:10.1007/s10765-015-2006-0).

Key:
[1] = mn = molality of the nth substance listed, in mol/kg; conditions: 101 kPa, Liquid, Frequency=3 MHz, Sing-around technique in a fixed-path interferometer
[2] = 101 kPa, Liquid, Frequency=3 MHz, Sing-around technique in a fixed-path interferometer

NCC(=O)O [2-aminoacetic acid] + O
speed of sound [m/s], [1]
Conditions | m1 = 0.01207 | m1 = 0.0523 | m1 = 0.1037 | m1 = 0.2037 | m1 = 0.3068 | m1 = 0.4124 | m1 = 0.5028 | m1 = 0.6058 | m1 = 0.6829 | m1 = 0.82
288.15 K | 1467.2 | 1470.1 | 1472.3 | 1477.8 | 1483.4 | 1488.7 | 1494.5 | 1499.2 | 1503.4 | 1510.2
298.15 K | 1497.7 | 1500.1 | 1502.3 | 1507.2 | 1512.4 | 1517.8 | 1523 | 1527.3 | 1531.3 | 1537.7
308.15 K | 1520 | 1522.9 | 1524.7 | 1529.7 | 1534.6 | 1539.7 | 1543.8 | 1548.7 | 1552.5 | 1558.6
318.15 K | 1537.2 | 1538.9 | 1541.1 | 1545.8 | 1551.4 | 1555.4 | 1560.2 | 1564.1 | 1567.7 | 1573.5

O=C([O-])CC(O)(CC(=O)[O-])C(=O)[O-].[NH4+].[NH4+].[NH4+] [ammonium 2-hydroxypropane-1,2,3-tricarboxylate] + O
speed of sound [m/s], [1]
Conditions | 288.15 K | 298.15 K | 308.15 K | 318.15 K
m1 = 0.2 | 1503.6 | 1532.2 | 1553.8 | 1569
m1 = 0.4 | 1540.7 | 1567.5 | 1587.7 | 1602.1
m1 = 0.6 | 1578.5 | 1603.3 | 1622 | 1635.2
m1 = 0.8 | 1615.6 | 1638.6 | 1655.7 | 1667.6

O [water]
[2]
Conditions | speed of sound [m/s]
288.15 K | 1463.1
298.15 K | 1495.8
308.15 K | 1519.1
